Data: PubChem BioAssay AID256 (DTP/NCI, 2004)
Several values for one entry are separate records, joined by “and”; a condition that tells them apart may be missing. Equal values may be shown once. Toxic doses and inconclusive results are not listed. How the source made its calls: active means survival T/C of 150% or more; inactive means T/C below 125% in these data.

Test system: CD2F1 mice, L1210 leukemia ip, survival T/C
Assay: NCI In Vivo Anticancer Drug Screen. Data for tumor model L1210 Leukemia (intraperitoneal) in CD2F1 (CDF1) mice
Conditions: higher = longer survival
In short: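 Activity against a transplanted murine tumor was judged by comparing the compound group with a vehicle group. The outcome in the treated animals was divided by that in the controls.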

[1] = endpoint: mean survival time, dose: 100.0 mg/kg/injection, schedule: Q01DX009 (ip), vehicle: saline with Tween-80
[2] = endpoint: mean survival time, dose: 200.0 mg/kg/injection, schedule: Q01DX009 (ip), vehicle: saline with Tween-80
[3] = endpoint: mean survival time, dose: 400.0 mg/kg/injection, schedule: Q01DX009 (ip), vehicle: saline with Tween-80

Measured: T/C

CCC1(O)C(=O)OCc2c1cc1n(c2=O)Cc2cc3cc(OC)c(OC)cc3nc2-1 (stereo not given)
inactive: endpoint: median survival time, dose: 6.25 mg/kg/injection, schedule: Q04DX002 (ip), vehicle: saline with Tween-80 103 % of control | endpoint: median survival time, dose: 12.5 mg/kg/injection, schedule: Q04DX002 (ip), vehicle: saline with Tween-80 101 % of control | endpoint: median survival time, dose: 25.0 mg/kg/injection, schedule: Q04DX002 (ip), vehicle: saline with Tween-80 103 % of control | endpoint: median survival time, dose: 50.0 mg/kg/injection, schedule: Q04DX002 (ip), vehicle: saline with Tween-80 94 % of control

C1CCC2CCCN2CC1 (stereo not given)
inactive: endpoint: mean survival time, dose: 12.5 mg/kg/injection, schedule: Q01DX009 (ip), vehicle: saline with Tween-80 95 % of control | endpoint: mean survival time, dose: 12.5 mg/kg/injection, schedule: Q04DX003 (ip), vehicle: acetone 94 % of control | endpoint: mean survival time, dose: 25.0 mg/kg/injection, schedule: Q01DX009 (ip), vehicle: saline with Tween-80 94 % of control | endpoint: mean survival time, dose: 25.0 mg/kg/injection, schedule: Q04DX003 (ip), vehicle: acetone 92 % of control | endpoint: mean survival time, dose: 50.0 mg/kg/injection, schedule: Q04DX003 (ip), vehicle: acetone 100 % of control

COc1cc(CC#N)ccc1OCc1ccccc1
inactive: endpoint: mean survival time, dose: 12.5 mg/kg/injection, schedule: Q01DX009 (ip), vehicle: other 102 % of control | endpoint: mean survival time, dose: 25.0 mg/kg/injection, schedule: Q01DX009 (ip), vehicle: other 101 % of control | endpoint: mean survival time, dose: 25.0 mg/kg/injection, schedule: Q04DX003 (ip), vehicle: other 102 % of control | endpoint: mean survival time, dose: 50.0 mg/kg/injection, schedule: Q01DX009 (ip), vehicle: other 100 % of control | endpoint: mean survival time, dose: 50.0 mg/kg/injection, schedule: Q04DX003 (ip), vehicle: other 96 % of control | endpoint: mean survival time, dose: 100.0 mg/kg/injection, schedule: Q04DX003 (ip), vehicle: other 103 % of control

NC1=NCN2C(=N1)OC1C(O)C(CO)OC12 (stereo not given)
inactive: endpoint: mean survival time, dose: 1.56 mg/kg/injection, schedule: Q01DX009 (ip), vehicle: saline 94 % of control and 106 % of control | endpoint: mean survival time, dose: 3.12 mg/kg/injection, schedule: Q01DX009 (ip), vehicle: saline 91 % of control and 102 % of control | endpoint: mean survival time, dose: 6.25 mg/kg/injection, schedule: Q01DX009 (ip), vehicle: saline 91 % of control and 103 % of control | endpoint: mean survival time, dose: 12.5 mg/kg/injection, schedule: Q01DX009 (ip), vehicle: saline 91 % of control | endpoint: mean survival time, dose: 25.0 mg/kg/injection, schedule: Q01DX009 (ip), vehicle: saline 91 % of control and 100 % of control | endpoint: mean survival time, dose: 50.0 mg/kg/injection, schedule: Q01DX009 (ip), vehicle: saline 91 % of control and 97 % of control | endpoint: mean survival time, dose: 100.0 mg/kg/injection, schedule: Q01DX009 (ip), vehicle: saline 92 % of control and 96 % of control | endpoint: mean survival time, dose: 200.0 mg/kg/injection, schedule: Q01DX009 (ip), vehicle: saline 88 % of control and 100 % of control

CCCC(=O)Nc1ccccc1
inactive: endpoint: mean survival time, dose: 100.0 mg/kg/injection, schedule: Q01DX001 (ip), vehicle: saline with Tween-80 96 % of control | [1] 102 % of control | endpoint: mean survival time, dose: 200.0 mg/kg/injection, schedule: Q01DX001 (ip), vehicle: saline with Tween-80 95 % of control | [2] 102 % of control | endpoint: mean survival time, dose: 400.0 mg/kg/injection, schedule: Q01DX001 (ip), vehicle: saline with Tween-80 98 % of control | [3] 112 % of control

CN(Cc1cnc2nc(N)nc(N)c2n1)c1ccc(C(=O)NC(CCC(=O)O)C(=O)NC(CC(=O)O)C(=O)O)cc1 (stereo not given)
inactive: endpoint: mean survival time, dose: 1.0 mg/kg/injection, schedule: Q01DX009 (ip), vehicle: sodium bicarbonate 100 % of control | endpoint: mean survival time, dose: 2.0 mg/kg/injection, schedule: Q01DX009 (ip), vehicle: sodium bicarbonate 111 % of control | endpoint: mean survival time, dose: 5.0 mg/kg/injection, schedule: Q01DX009 (ip), vehicle: sodium bicarbonate 121 % of control | endpoint: mean survival time, dose: 50.0 mg/kg/injection, schedule: Q01DX009 (ip), vehicle: sodium bicarbonate 105 % of control

c1ccc(P2(c3ccccc3)=NP(c3ccccc3)(c3ccccc3)=NP(c3ccccc3)(c3ccccc3)=N2)cc1
inactive: endpoint: mean survival time, dose: 100.0 mg/kg/injection, schedule: Q04DX003 (ip), vehicle: saline 102 % of control | endpoint: mean survival time, dose: 200.0 mg/kg/injection, schedule: Q04DX003 (ip), vehicle: saline 94 % of control | endpoint: mean survival time, dose: 400.0 mg/kg/injection, schedule: Q04DX003 (ip), vehicle: saline 96 % of control

CNc1nc(N)nc2nonc12
inactive: endpoint: mean survival time, dose: 12.5 mg/kg/injection, schedule: Q01DX005 (ip), vehicle: other 98 % of control | endpoint: mean survival time, dose: 25.0 mg/kg/injection, schedule: Q01DX005 (ip), vehicle: other 98 % of control | endpoint: mean survival time, dose: 50.0 mg/kg/injection, schedule: Q01DX005 (ip), vehicle: other 95 % of control | endpoint: mean survival time, dose: 100.0 mg/kg/injection, schedule: Q01DX005 (ip), vehicle: other 86 % of control | endpoint: mean survival time, dose: 200.0 mg/kg/injection, schedule: Q01DX005 (ip), vehicle: other 89 % of control

O=c1c(Cl)cc(Cl)cn1S(=O)(=O)c1ccc([N+](=O)[O-])cc1
inactive: [1] 100 % of control | endpoint: mean survival time, dose: 100.0 mg/kg/injection, schedule: Q04DX003 (ip), vehicle: saline with Tween-80 102 % of control | [2] 102 % of control | endpoint: mean survival time, dose: 200.0 mg/kg/injection, schedule: Q04DX003 (ip), vehicle: saline with Tween-80 102 % of control | [3] 98 % of control | endpoint: mean survival time, dose: 400.0 mg/kg/injection, schedule: Q04DX003 (ip), vehicle: saline with Tween-80 101 % of control

C[Si](F)(c1cccc2ccccc12)c1cccc2ccccc12
inactive: [1] 93 % of control | [2] 98 % of control | [3] 96 % of control
